From patent publication US20100055093A1, “PAN-CELL SURFACE RECEPTOR-SPECIFIC THERAPEUTICS” (RECEPTOR BIOLOGIX INC., priority 2006, published 2010)
Entries after “also recorded” stand apart in the source; their conditions may differ. Marks after values point to notes of the source that are not given here. Values belong to the molecule of their own block, whether it stands above or below them.

Columns and labels:
HER2 = biological target: T1, HER2 (Homo sapiens, UniProt P04626); test: ELISA-based HER receptor phosphorylation assay, HER2; assay type: cell-based; settings: MCF7/HER2 cells, HRG, 600 nM protein
T1 construct: endogenous in cells
Method: (§1) Phosphorylation of HER receptors was assessed in an ELISA-based HER Receptor phosphorylation assay. Various cells (A431, MCF7, SK-BR3, SK-OV3, MCF7/HER2) were serum-starved in serum free medium for about 24 hr.
(§2) Cells were lysed on ice for 15 min and cell lysate were applied to a 96-well plate pre-coated with the respective receptor-specific capture antibodies (antibodies were purchased from R & D System) by manufacture recommended concentrations (0.4 to 4 ug/ml) and condition (in PBS, room temperature, overnight). Cell lysates were incubated with the capture Ab plate for 3 hrs at room temperature. Plates were washed 3× with PBST buffer. Anti-phosphotyrosine antibody clone 4G10 HRP-conjugated (Upstate) were diluted at 1:1000 in 1% of BSA.PBS and added to the plates, 100 μl/well for 1 hr to detect specifically HER receptors phosphorylated on tyrosine. After 3× PBST wash, the plates were developed by adding 100 μl of substrate solution (TMB, Sigma) and stopped by 50 μl of SDS stop solution. The optical density was determined by microplate reader at 650 nm (Molecular Devices, VERSAmax).

HER3 = biological target: T2, HER3 (Homo sapiens, UniProt P21860); test: ELISA-based HER receptor phosphorylation assay, HER3; assay type: cell-based; settings: HRG; for maximal inhibition of HER3 phosphorylation: 600 nM protein; for IC50: read-out: IC50, inhibition of HER3 phosphorylation
T2 construct: endogenous in cells
Method: as §1, §2

EGF = EGF (Homo sapiens, UniProt P01133); test: 125I-EGF binding with BS3 cross-linking and SDS-PAGE; settings: supernatant of transfected 293T cells, 5 nM 125I-EGF, BS3 cross-linking, SDS-PAGE
Sequence of EGF (P01133 971-1023 limits assumed): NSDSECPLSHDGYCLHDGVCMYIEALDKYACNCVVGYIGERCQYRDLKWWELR
Method: BS^3, a chemical crosslinker (Pierce) was added at the end of the binding assay to cross-link the bound molecules. Samples were separated on an SDS-PAGE gel and exposed to a film for detection.
(§3) Western blots were probed with anti-His antibody to compare protein levels.

heregulin (HRG) = test: 125I-HRG binding with BS3 cross-linking and SDS-PAGE; settings: for binding of 125I-HRG: 5 nM 125I-HRG, BS3 cross-linking, SDS-PAGE
Method: 1 mM of the BS3 crosslinker was added at the end of the binding assay to cross-link the bound molecules. Binding reactions were separated on an SDS-PAGE gel.
as §3

MCF7 cells = test: Ligand-stimulated cell proliferation, Alamar Blue; assay type: cell-based; settings: MCF7 stimulated by HRGβ, at 1 μm
Method: Cell lines MCF7, ZR75-1, ME180 were purchased from ATCC and kept in 10% of FBS DMEM. Cells were seeded at 2000 per well in 96-well plate in 1% FBS supplemented DMEM. After 2-3 hr of seeding, increasing concentrations of candidate HER ECD derivatives were added to the culture in the present of ligands (EGF or HRGβ). Cells were incubated at 37° C. for about 72 hr. Cells relative density were measured by Alamar Blue method. Alamar Blue (Sigma) was prepared in PBS at concentration of 4 uM, added to the microplate at 1/10 volume of culture medium (final concentration 0.4 uM) and plates returned to the incubator. Fluorescence was read at Ex.=530 nm/Em.=590 nm after 2-4 hours at 37° C.

A431 s.c. tumor = test: Therapeutic evaluation in A431 s.c. human tumor xenograft model; assay type: in vivo, nude mice
Method: Mice were obtained from the commercial suppliers (Harlan, UK). The mice were 4-6 weeks old at the start of the study. […] The room was air-conditioned by a system designed to maintain an air temperature range of 23±2° C. Mice were housed in groups of 2 or 5 during the procedure in plastic cages (Techniplast UK) with irradiated bedding and provided with both nesting materials and environmental enrichment. […] Tumor dimensions were recorded (calliper measurement of length and width and tumor cross-sectional area and volume calculated) three times weekly and body weight measured weekly. Each mouse remained in the study until terminated, or until necessitate removal of that mouse from the study. Animals were terminated if the tumor size becomes excessive or any adverse effects are noted. At termination the mice were anaesthetized (Hypnorm/Hynovel) and 1 ml blood removed by cardiac puncture, processed for plasma, frozen for both the pilot and therapeutic study. The mice were then terminated by an approved S1 method. For the therapeutic study, the tumors were excised, weighed, measured and fixed in formalin. Body weight data, tumor growth and final tumor weight were recorded and reported in spreadsheet and graphical format. Statistical analysis was performed if appropriate using Minitab. […] An extra group for the therapeutic study was added by PRECOS as below. Group 9: 30 mg/kg human IgG i.p. 3 times weekly. Iressa was prepared by PRECOS in 10% DMSO & 5% Cremaphor in PBS. Tumors were initiated with 2×10^6 cells per mouse for the therapeutic study.

A431 tumor bearing mice = test: Pilot toxicity study in A431 tumor bearing mice; assay type: in vivo, nude mice
Method: Mice were obtained from the commercial suppliers (Harlan, UK). The mice were 4-6 weeks old at the start of the study. […] The room was air-conditioned by a system designed to maintain an air temperature range of 23±2° C. Mice were housed in groups of 2 or 5 during the procedure in plastic cages (Techniplast UK) with irradiated bedding and provided with both nesting materials and environmental enrichment.
Cells were injected subcutaneously into mice at 1×10^7 cells in a volume of 100 μl.
For the pilot toxicity study, mice were allocated to their treatment groups and treatment began on day 5 for 2 weeks in a dosing volume of 150 μl per injection. […] Tumor dimensions were recorded (calliper measurement of length and width and tumor cross-sectional area and volume calculated) three times weekly and body weight measured weekly.
Each mouse remained in the study until terminated, or until necessitate removal of that mouse from the study. Animals were terminated if the tumor size becomes excessive or any adverse effects are noted. At termination the mice were anaesthetized (Hypnorm/Hynovel) and ˜1 ml blood removed by cardiac puncture, processed for plasma, frozen for both the pilot and therapeutic study. The mice were then terminated by an approved S1 method.
Pilot toxicity study was terminated after 12 days of dosing in order to collect plasma samples 3 hours after dosing. […]

[1] = biological target: the molecule itself; test: self-association by size exclusion chromatography (apparent over calculated molecular weight)
Method: This methodology permits simplified analysis of the ability of receptor ectodomains to associate as either homodimers or heterodimers. To perform molecular size exlusion analysis, eluted molecules were compared to reference standards. […] Smaller volumes elute in the retained volume of the column, while larger molecules elute in smaller volumes according to their increasing molecular mass.
Molecular size exclusion analysis was performed using a A TSK3000 size exclusion column (Tosoh Bioscience, Montgomeryville, Pa.) equilibrated with PBS at a flow rate of 0.7 ml/min. Gel filtration standards (BioRad, Hercules, Calif.) were used to calibrate the column. Their elution volumes and molecular weights were plotted. Elution volumes were determined for each unknown by injection of 30 μg of each molecule in PBS and their apparent molecular weights calculated. Flow was maintained over the column between injections. Molecular weights were determined using a Standard curve for molecular weight standards.

[2] = biological target: T3, neuregulin-1 beta 1 (NRG1β1) (human, UniProt Q02297-6 177-241, limits assumed); test: 125I-HRG (5 nM) cross-linking (BS3), normalised by anti-HER3 Western blot densitometry
T3 construct: also called HRG; heregulin
T3 sequence (looked up): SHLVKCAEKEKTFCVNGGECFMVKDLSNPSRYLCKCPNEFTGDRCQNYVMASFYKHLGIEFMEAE
Method: 1 mM of the BS₃ crosslinker was added at the end of the binding assay to cross-link the bound molecules. Binding reactions were separated on an SDS-PAGE gel. The protein gel was dried and exposed to a film for 2 and 6 hours.

[3] = Group 5, 38 mg/kg Iressa, group mean
[4] = Group 6, 75 mg/kg Iressa, group mean

- maximal inhibition of HER2 phosphorylation (HER2): about 55%
- maximal inhibition of HER3 phosphorylation (HER3; MCF7/HER2 cells): about 55%
Molecule: HF210T: truncated HER2 ECD, residues 1-573, SEQ ID NO:16

Molecule: HFD200: full-length HER2 ECD fused to Fc, SEQ ID NO:42
- binding of 125I-EGF (EGF): did not show any detectable
- binding of 125I-EGF (EGF; listed as HER2-650/Fc): no binding
- binding of 125I-HRG (heregulin (HRG)): did not show any detectable

- binding of 125I-HRG (heregulin (HRG)): equivalent binding
- maximal inhibition of HER3 phosphorylation (HER3; MCF7 cells): about 78%
- IC50 (HER3; MCF7 cells): 39 nM
- maximal inhibition of HER3 phosphorylation (HER3; SK-BR3 cells): about 75%
Molecule: HF310T: truncated HER3 ECD, residues 1-500, SEQ ID NO:20
- inhibition of proliferation (MCF7 cells): about 95%

- binding of 125I-HRG (heregulin (HRG)): equivalent binding
Molecule: HFD310: truncated HER3 ECD (1-500) fused to Fc, SEQ ID NO:44

Molecule: HFD400: full-length HER4 ECD fused to Fc, SEQ ID NO:48
- binding of 125I-EGF (EGF): no binding
- binding of 125I-HRG (heregulin (HRG)): bound
- binding of 125I-HRG (heregulin (HRG); listed as HER4-650/Fc): binds

- maximal inhibition of HER2 phosphorylation (HER2): about 35%
- maximal inhibition of HER3 phosphorylation (HER3; MCF7/HER2 cells): about 35%
Molecule: HF220T: truncated HER2 ECD, residues 1-508, SEQ ID NO:14

- binding of HRG as compared to the other derivatives tested (heregulin (HRG); normalized by anti-HER3 Western blot densitometry): about 10%
- maximal inhibition of HER3 phosphorylation (HER3; MCF7 cells): about 38%
- IC50 (HER3; MCF7 cells): 48 nM
- maximal inhibition of HER3 phosphorylation (HER3; SK-BR3 cells): about 55%
Molecule: HF300T: full-length HER3 ECD, residues 1-621, SEQ ID NO:26

Molecule: COc1cc2ncnc(Nc3ccc(F)c(Cl)c3)c2cc1OCCCN1CCOCC1 [Iressa, Gefitinib]
- tumor growth rate in comparison to the vehicle group (A431 s.c. tumor; 38 mg/kg Iressa (Group 5)): did not
- reduction of final tumor weight (A431 s.c. tumor; 75 mg/kg Iressa (Group 6)): 69%
- tumor growth rate in comparison to the vehicle group (A431 s.c. tumor; 75 mg/kg Iressa i.p. days 1-5 cycled weekly (Group 6)): significantly decreased
- Tumor volume (mm^3) Day 7 (A431 s.c. tumor; [3]): 51.2 mm^3
- Tumor volume (mm^3) Day 10 (A431 s.c. tumor; [3]): 79.4 mm^3
- Tumor volume (mm^3) Day 12 (A431 s.c. tumor; [3]): 108.8 mm^3
- Tumor volume (mm^3) Day 14 (A431 s.c. tumor; [3]): 152.6 mm^3
- Tumor volume (mm^3) Day 17 (A431 s.c. tumor; [3]): 220.6 mm^3
- Tumor volume (mm^3) Day 19 (A431 s.c. tumor; [3]): 259.6 mm^3
- Tumor volume (mm^3) Day 21 (A431 s.c. tumor; [3]): 396.9 mm^3
- Tumor volume (mm^3) Day 24 (A431 s.c. tumor; [3]): 477.0 mm^3
- Tumor volume (mm^3) Day 25 (A431 s.c. tumor; [3]): 491.1 mm^3
- Tumor volume (mm^3) Day 26 (A431 s.c. tumor; [3]): 510.1 mm^3
- Tumor weight (A431 s.c. tumor; Group 5, 38 mg/kg Iressa, final tumor weight, group mean): 0.267 g
- Tumor volume (mm^3) Day 7 (A431 s.c. tumor; [4]): 48.6 mm^3
- Tumor volume (mm^3) Day 10 (A431 s.c. tumor; [4]): 72.5 mm^3
- Tumor volume (mm^3) Day 12 (A431 s.c. tumor; [4]): 87.1 mm^3
- Tumor volume (mm^3) Day 14 (A431 s.c. tumor; [4]): 104.3 mm^3
- Tumor volume (mm^3) Day 17 (A431 s.c. tumor; [4]): 123.1 mm^3
- Tumor volume (mm^3) Day 19 (A431 s.c. tumor; [4]): 112.1# mm^3
- Tumor volume (mm^3) Day 21 (A431 s.c. tumor; [4]): 150.1# mm^3
- Tumor volume (mm^3) Day 24 (A431 s.c. tumor; [4]): 180.5# mm^3
- Tumor volume (mm^3) Day 25 (A431 s.c. tumor; [4]): 178.6# mm^3
- Tumor volume (mm^3) Day 26 (A431 s.c. tumor; [4]): 181.9# mm^3
- Tumor weight (g) (A431 s.c. tumor; Group 6, 75 mg/kg Iressa, final tumor weight, group mean): 0.095# g
- tumor size prior to termination (A431 tumor bearing mice; Iressa treatment groups (groups 2 and 3)): inhibition of tumor size
- adverse effects (A431 tumor bearing mice; i.p., 30 mg/kg RB200h, 75 mg/kg IRESSA, or 10 mg/kg RB200h with 38 mg/kg IRESSA, 12 days of dosing): No adverse effects

- binding of 125I-HRG (heregulin (HRG)): equivalent binding; also recorded: bound
- binding of 125I-HRG (heregulin (HRG); listed as HER3-621/Fc): binds
Molecule: HFD300: full-length HER3 ECD (1-621) fused to Fc, SEQ ID NO:46; homodimer

B1: HF410T (HER4-485) (receptor)
chain: QSVCAGTENKLSSLSDLEQQYRALRKYYENCEVVMGNLEITSIEHNRDLSFLRSVREVTGYVLVALNQFRYLPLENLRIIRGTKLYEDRYALAIFLNYRKDGNFGLQELGLKNLTEILNGGVYVDQNKFLCYADTIHWQDIVRNPWPSNLTLVSTNGSSGCGRCHKSCTGRCWGPTENHCQTLTRTVCAEQCDGRCYGPYVSDCCHRECAGGCSGPKDTDCFACMNFNDSGACVTQCPQTFVYNPTTFQLEHNFNAKYTYGAFCVKKCPHNFVVDSSSCVRACPSSKMEVEENGIKMCKPCTDICPKACDGIGTGSLMSAQTVDSSNIDKFINCTKINGNLIFLVTGIHGDPYNAIEAIDPEKLNVFRTVREITGFLNIQSWPPNMTDFSVFSNLVTIGGRVLYSGLSLLILKQQGITSLQFQSLKEISAGNIYITDNSNLCYYHTINWTTLFSTINQRILESRGPFEQKLISEEDLNMHTGHHHHHH
- M. Wt. (ap):M. Wt. [1]: 1.98

- binding relative to the other derivatives tested [2]: ~10%
B2: HER3-621, full-length HER3 ECD (receptor)
chain: SEVGNSQAVCPGTLNGLSVTGDAENQYQTLYKLYERCEVVMGNLEIVLTGHNADLSFLQWIREVTGYVLVAMNEFSTLPLPNLRVVRGTQVYDGKFAIFVMLNYNTNSSHALRQLRLTQLTEILSGGVYIEKNDKLCHMDTIDWRDIVRDRDAEIVVKDNGRSCPPCHEVCKGRCWGPGSEDCQTLTKTICAPQCNGHCFGPNPNQCCHDECAGGCSGPQDTDCFACRHFNDSGACVPRCPQPLVYNKLTFQLEPNPHTKYQYGGVCVASCPHNFVVDQTSCVRACPPDKMEVDKNGLKMCEPCGGLCPKACEGTGSGSRFQTVDSSNIDGFVNCTKILGNLDFLITGLNGDPWHKIPALDPEKLNVFRTVREITGYLNIQSWPPHMHNFSVFSNLTTIGGRSLYNRGFSLLIMKNLNVTSLGFRSLKEISAGRIYISANRQLCYHHSLNWTKVLRGPTEERLDIKHNRPRRDCVAEGKVCDPLCSSGGCWGPGPGQCLSCRNYSRGGVCVTHCNFLNGEPREFAHEAECFSCHPECQPMGGTATCNGSGSDTCAQCAHFRDGPHCVSSCPHGVLGAKGPIYKYPDVQNECRPCHENCTQGCKGPELQDCLGQTLVLIGKTLESRGPFEQKLISEEDLNMHTGHHHHHH
notes: also called HF300; HF300T
- M. Wt. (ap):M. Wt. [1]: 2.66
